In patent US12570694B2, “Peptides and pharmaceutical, nutraceutical or veterinary compositions for hair loss prevention and/or treatment” (VYTRUS BIOTECH, S.L., priority 2016, dated 2026):
Several values for one entry are separate records, joined by “and”; a condition that tells them apart may be missing. Identical values can stand only once.

How the values were obtained:
[1] = tested on: human hair follicle papilla cells (HFDPC); assay: In vitro proliferation of hair follicle dermal papilla cells (BrdU incorporation); assay type: cell-based
Experimental: In order to test the effects of the cell-free supernatants, as well as of the peptides of the invention, a proliferation assay was conducted onto human hair follicle papilla cells (CELL APPLICATIONS, INC; Normal human hair follicles from temporal scalp. Single donor: Ref. 602-05a. Lot. 2092.).
The culture media was a Papilla Cell Basal Medium supplemented with the Growth Supplements kit (Relative composition: Fetal bovine serum, growth factors and antibiotics. Application: 6% v/v).
HFDPC proliferation was assessed determining the proliferation index (%). Cell DNA replication was quantified by means of incorporated bromodeoxiuridine (BrdU) into DNA of treated cells. BrdU assay allows measuring cell proliferation based on cell capability of incorporating BrdU during S-phase of the cell cycle. Cells being divided incorporated BrdU that is further detected by means of antibodies and immunocytochemistry detection.
Cells were seeded at confluence in a 96-well plate. After stabilization and synchronization of cell cultures the tested products were added (at the final concentration indicated in Table 1 of Examples. After that, BrdU was added to cultures and HFDPC were incubated at 37° C. until complete BrdU incorporation. BrdU amounts were proportional to the number of cell divisions and thus to the growth of the treated culture.
Data are depicted in FIG. 1, FIG. 2 and FIG. 3, wherein it is shown the proliferation index (%) of HFDPC, calculated as the percentage of growing in relation to the basal control (non-treated HFDPC) which is accorded a 100% value of proliferation index.

[2] = tested on: males and females with hair-loss problems; assay: In vivo test: capillary (hair) density by Trichoscan microphotography in volunteers; parameters: species or system human
Experimental: Curcuma longa cell-free supernatant prepared as indicated in Example 2, as well as the peptide of SEQ ID NO: 6 in the PBS buffered fortifying solution 2× disclosed in Example 1 were tested in males and females (n=60, from 18 to 60 years old) with hair-loss problems. There were excluded those volunteers that received a capillary treatment three months before the assay, volunteers with cutanic pathologies at scalp (psoriasis, dermatitis, etc.) and allergy to compounds in the formulations.
Tested compounds were daily applied.
At time 0 (T0) there were taken scalp pictures (frontal and occipital parts), trichograms for determining the hair phase cycle (telogen or anagen phase), the combing test (number of hair lost during combing), and capillary density by microphotography with Trichoscan®.
At t=45 days and t=90 days, there were performed the combing test and the density tests (Trichoscan®)
At t=150 days again as in t=0.
Volunteers were separated in three groups. Group 1 receiving SEQ ID NO: 6 in the PBS buffered fortifying solution 2× disclosed in Example 1; Group 2 receiving Curcuma longa cell-free supernatant prepared as indicated in Example 2, and Group 3 the placebo.
Data are depicted in next Table 2 for capillary density. This table includes the average values determined of capillary density increase after evaluating in each volunteer the number of hairs in a 0.25 cm^2 are, capillary density at t=0 and t=90, and said increase in relation to t=0 value

[3] = group mean, minimal and maximal values not considered

CH3—C(O)—YIYT-NH2 (Ac-YIYT-NH2) [SEQ ID NO: 6, in vivo: dissolved 0.025% w/w in PBS buffered fortifying solution 2×]
proliferation index of HFDPC ([1]; FIG. 1, relative to basal control (non-treated HFDPC) = 100%, concentrations C1/C2 of Table 1): showed the best results
proliferation index of HFDPC ([1]; FIGS. 2 and 3, peptides with or without end-terminal modifications at 5.86, 2.93, 1.46 μg/ml, basal control = 100%): can promote cell proliferation
new hairs appeared in the whole hair ([2]; concluded from the mean hair density increase at T150): ≤ 14000 hairs
Capillary density increase ([2]; group average, t=90 in relation to t=0, daily application (Table 4)): 14.66%
HAIR DENSITY INCREASE T90, Mean [2, 3]: 14.03%
HAIR DENSITY INCREASE T150, Mean [2, 3]: 19.27%
HAIR DENSITY INCREASE T90 ([2]; individual volunteers, T90 vs T0): 16.66% and 6.06% and 40.91% and 11.11% (2×) and 22.73% and 34.37% and 5.40% and 17.15% and 7.14% and 0.00% (3×) and −9.62%(*) and 70.01%(*) and 4.76% and 39.99% and 9.67% and 11.54%
HAIR DENSITY INCREASE T150 ([2]; individual volunteers, T150 vs T0): 24.99% and 6.06% and 36.36% and 14.63% and 18.18% and 21.87% and −5.41% and 2.86% and 35.71% and 0.00% (2×) and 14.81% and −7.69%(*) and 60.01% and 38.09% and 7.40% and 73.32%(*) and 9.67% and 42.31%
HAIR DENSITY 1/cm2 T90 ([2]; individual volunteers, T90 days): 111.38 1/cm2 and 139.22 1/cm2 and 123.31 1/cm2 (2×) and 119.33 1/cm2 (3×) and 107.4 1/cm2 (2×) and 171.04 1/cm2 and 155.13 1/cm2 and 163.09 1/cm2 and 115.35 1/cm2 (2×) and 186.95 1/cm2 and 135.24 1/cm2 (2×) and 87.51 1/cm2 and 83.53 1/cm2
Nr HAIRS/0.25 cm2 T90 ([2]; individual volunteers, T90 days, daily application): 28 HAIRS/0.25 cm2 and 35 HAIRS/0.25 cm2 and 31 HAIRS/0.25 cm2 (2×) and 30 HAIRS/0.25 cm2 (3×) and 27 HAIRS/0.25 cm2 (2×) and 43 HAIRS/0.25 cm2 and 39 HAIRS/0.25 cm2 and 41 HAIRS/0.25 cm2 and 29 HAIRS/0.25 cm2 (2×) and 47 HAIRS/0.25 cm2 and 34 HAIRS/0.25 cm2 (2×) and 22 HAIRS/0.25 cm2 and 21 HAIRS/0.25 cm2
HAIR DENSITY 1/cm2 T150 ([2]; individual volunteers, T150 days): 119.33 1/cm2 (2×) and 139.22 1/cm2 (2×) and 123.11 1/cm2 and 103.42 1/cm2 (2×) and 155.13 1/cm2 and 143.2 1/cm2 and 151.15 1/cm2 and 115.35 1/cm2 (3×) and 123.31 1/cm2 (2×) and 190.93 1/cm2 and 127.29 1/cm2 and 135.24 1/cm2 and 147.18 1/cm2
Nr HAIRS/0.25 cm2 T150 ([2]; individual volunteers, T150 days, daily application): 30 HAIRS/0.25 cm2 (2×) and 35 HAIRS/0.25 cm2 (2×) and 31 HAIRS/0.25 cm2 (3×) and 26 HAIRS/0.25 cm2 (2×) and 39 HAIRS/0.25 cm2 and 36 HAIRS/0.25 cm2 and 38 HAIRS/0.25 cm2 and 29 HAIRS/0.25 cm2 (3×) and 48 HAIRS/0.25 cm2 and 32 HAIRS/0.25 cm2 and 34 HAIRS/0.25 cm2 and 37 HAIRS/0.25 cm2
